Experimental data: patent publication US8959984B2, “Proteome-wide quantification of small molecule binding to cellular target proteins” (priority 2007, dated 2015)

What was measured:
Experiment in all cases: binding to VI16742 beads (HeLa lysate, SILAC MS)
[1] = target: T1, NDR1 (STK38, IPI00027251) (Homo sapiens, UniProt Q15208)
T1 construct: endogenous in cells; host or cells: HeLa S3 cell lysate
Summary of the method: (§1)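 Affinity capture: immobilised pyrido[2,3-d]pyrimidine kinase inhibitor, broad selectivity. Specific retention on the resin counted as binding.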

CDK4 (IPI00007811) = target: T2, CDK4 (IPI00007811) (Homo sapiens, UniProt P11802)
T2 construct: endogenous in cells; host or cells: HeLa S3
Summary of the method: as §1

MET (IPI00294528) = target: T3, MET (IPI00294528) (Homo sapiens, UniProt P08581)
T3 construct: endogenous in cells; host or cells: HeLa S3 cell lysate
Summary of the method: as §1

MAP2K6 (IPI00003814) = target: T4, MAP2K6 (IPI00003814) (Homo sapiens, UniProt P52564)
T4 construct: endogenous in cells; host or cells: HeLa S3
T4 sequence (P52564 1-334): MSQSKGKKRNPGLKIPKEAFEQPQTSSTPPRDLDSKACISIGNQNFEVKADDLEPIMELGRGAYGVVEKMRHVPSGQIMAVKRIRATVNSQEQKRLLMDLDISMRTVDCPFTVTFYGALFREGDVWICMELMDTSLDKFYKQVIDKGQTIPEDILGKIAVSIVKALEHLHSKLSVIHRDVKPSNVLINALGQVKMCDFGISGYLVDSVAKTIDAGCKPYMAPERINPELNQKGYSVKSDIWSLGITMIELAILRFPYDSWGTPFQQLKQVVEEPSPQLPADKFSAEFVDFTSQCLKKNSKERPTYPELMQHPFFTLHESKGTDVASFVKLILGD
Summary of the method: as §1

ACLY (IPI00021290) = target: T5, ACLY (IPI00021290) (Homo sapiens, UniProt P53396)
T5 construct: endogenous in cells; host or cells: HeLa S3
T5 sequence (P53396 1-1101): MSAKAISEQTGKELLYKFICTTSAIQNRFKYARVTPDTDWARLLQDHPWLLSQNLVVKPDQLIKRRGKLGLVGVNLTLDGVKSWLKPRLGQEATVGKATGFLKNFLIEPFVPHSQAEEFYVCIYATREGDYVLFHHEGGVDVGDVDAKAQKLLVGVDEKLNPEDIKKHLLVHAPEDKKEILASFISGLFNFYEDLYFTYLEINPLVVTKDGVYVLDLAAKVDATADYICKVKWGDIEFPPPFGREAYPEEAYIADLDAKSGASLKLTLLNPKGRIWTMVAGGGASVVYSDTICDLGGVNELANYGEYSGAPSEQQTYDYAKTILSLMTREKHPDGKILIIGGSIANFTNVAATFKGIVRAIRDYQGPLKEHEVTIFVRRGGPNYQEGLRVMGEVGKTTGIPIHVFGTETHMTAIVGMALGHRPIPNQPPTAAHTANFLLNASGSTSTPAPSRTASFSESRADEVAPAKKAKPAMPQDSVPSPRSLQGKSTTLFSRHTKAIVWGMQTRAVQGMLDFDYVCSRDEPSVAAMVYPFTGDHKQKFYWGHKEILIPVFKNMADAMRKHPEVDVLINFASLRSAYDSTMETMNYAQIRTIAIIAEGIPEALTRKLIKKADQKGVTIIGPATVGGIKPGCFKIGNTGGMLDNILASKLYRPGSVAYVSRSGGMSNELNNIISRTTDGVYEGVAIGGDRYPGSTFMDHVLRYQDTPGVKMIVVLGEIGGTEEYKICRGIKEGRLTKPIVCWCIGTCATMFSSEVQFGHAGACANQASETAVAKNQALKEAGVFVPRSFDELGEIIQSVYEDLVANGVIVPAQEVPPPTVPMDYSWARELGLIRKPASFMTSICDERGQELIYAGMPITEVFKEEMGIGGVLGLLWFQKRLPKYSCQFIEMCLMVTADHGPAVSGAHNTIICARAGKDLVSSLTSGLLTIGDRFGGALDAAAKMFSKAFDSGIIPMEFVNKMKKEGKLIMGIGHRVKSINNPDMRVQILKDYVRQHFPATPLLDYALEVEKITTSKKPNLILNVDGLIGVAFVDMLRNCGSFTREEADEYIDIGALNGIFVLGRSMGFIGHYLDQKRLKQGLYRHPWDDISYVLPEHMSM
Summary of the method: as §1

XTP3TPA (IPI00012197) = target: T6, XTP3TPA (IPI00012197) (Homo sapiens, UniProt Q9H773)
T6 construct: endogenous in cells; host or cells: HeLa S3
T6 sequence (Q9H773 1-170): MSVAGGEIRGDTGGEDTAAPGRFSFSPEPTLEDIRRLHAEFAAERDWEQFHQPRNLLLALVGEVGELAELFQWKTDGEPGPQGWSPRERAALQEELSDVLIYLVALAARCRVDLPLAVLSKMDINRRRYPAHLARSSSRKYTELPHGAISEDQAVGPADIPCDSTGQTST
Summary of the method: as §1

MAP2K1 (IPI00219604) = target: T7, MAP2K1 (IPI00219604) (Homo sapiens, UniProt Q02750)
T7 construct: endogenous in cells; host or cells: HeLa S3
Summary of the method: as §1

[2] = target: T8, HGK/ZC1 (MAP4K4, IPI00604647) (Homo sapiens, UniProt O95819)
T8 construct: endogenous in cells; host or cells: HeLa S3
Summary of the method: as §1

[3] = control beads vs first incubation

T2 sequence (P11802 whole entry): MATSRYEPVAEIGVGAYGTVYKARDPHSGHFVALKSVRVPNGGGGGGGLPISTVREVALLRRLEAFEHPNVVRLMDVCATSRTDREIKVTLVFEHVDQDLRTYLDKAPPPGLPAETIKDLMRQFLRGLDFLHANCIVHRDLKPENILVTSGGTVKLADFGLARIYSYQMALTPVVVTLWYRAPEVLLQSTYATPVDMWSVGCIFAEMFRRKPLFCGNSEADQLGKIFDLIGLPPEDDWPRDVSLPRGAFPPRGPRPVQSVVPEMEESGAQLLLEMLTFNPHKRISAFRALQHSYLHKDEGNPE
T3 sequence (P08581 25-1390): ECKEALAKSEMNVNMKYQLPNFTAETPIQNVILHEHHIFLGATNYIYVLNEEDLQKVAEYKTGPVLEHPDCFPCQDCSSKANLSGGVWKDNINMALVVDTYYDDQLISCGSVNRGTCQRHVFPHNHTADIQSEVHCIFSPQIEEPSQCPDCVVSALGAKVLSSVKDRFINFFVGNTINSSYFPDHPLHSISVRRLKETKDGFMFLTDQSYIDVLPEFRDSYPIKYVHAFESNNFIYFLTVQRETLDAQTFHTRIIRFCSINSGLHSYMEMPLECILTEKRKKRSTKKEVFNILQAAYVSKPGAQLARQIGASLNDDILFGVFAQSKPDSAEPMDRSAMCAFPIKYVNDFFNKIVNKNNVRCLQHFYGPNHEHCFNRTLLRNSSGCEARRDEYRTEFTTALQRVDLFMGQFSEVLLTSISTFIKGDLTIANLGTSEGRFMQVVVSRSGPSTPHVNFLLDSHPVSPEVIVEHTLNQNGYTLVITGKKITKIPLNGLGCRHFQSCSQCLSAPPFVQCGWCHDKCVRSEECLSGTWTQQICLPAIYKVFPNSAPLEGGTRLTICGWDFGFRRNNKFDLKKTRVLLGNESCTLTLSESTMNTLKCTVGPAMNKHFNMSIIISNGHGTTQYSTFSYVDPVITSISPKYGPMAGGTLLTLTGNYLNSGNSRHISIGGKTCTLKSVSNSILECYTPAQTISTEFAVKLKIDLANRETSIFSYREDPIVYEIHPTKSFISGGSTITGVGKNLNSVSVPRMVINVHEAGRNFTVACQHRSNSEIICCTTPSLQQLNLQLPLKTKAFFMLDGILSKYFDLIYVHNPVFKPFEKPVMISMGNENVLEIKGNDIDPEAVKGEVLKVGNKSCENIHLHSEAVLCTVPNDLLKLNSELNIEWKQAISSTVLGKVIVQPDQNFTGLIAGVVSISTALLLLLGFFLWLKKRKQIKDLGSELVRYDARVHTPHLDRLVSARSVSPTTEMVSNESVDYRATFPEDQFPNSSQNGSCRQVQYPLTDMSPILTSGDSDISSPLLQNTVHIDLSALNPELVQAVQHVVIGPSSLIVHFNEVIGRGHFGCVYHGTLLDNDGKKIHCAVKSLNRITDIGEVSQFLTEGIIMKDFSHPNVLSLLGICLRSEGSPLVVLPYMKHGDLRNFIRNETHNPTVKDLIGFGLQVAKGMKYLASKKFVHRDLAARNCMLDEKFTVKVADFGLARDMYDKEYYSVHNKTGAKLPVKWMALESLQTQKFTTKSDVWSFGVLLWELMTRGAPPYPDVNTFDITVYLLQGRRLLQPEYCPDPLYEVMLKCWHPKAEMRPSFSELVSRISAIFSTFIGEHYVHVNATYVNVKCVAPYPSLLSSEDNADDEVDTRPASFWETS
T8 sequence (O95819 whole entry): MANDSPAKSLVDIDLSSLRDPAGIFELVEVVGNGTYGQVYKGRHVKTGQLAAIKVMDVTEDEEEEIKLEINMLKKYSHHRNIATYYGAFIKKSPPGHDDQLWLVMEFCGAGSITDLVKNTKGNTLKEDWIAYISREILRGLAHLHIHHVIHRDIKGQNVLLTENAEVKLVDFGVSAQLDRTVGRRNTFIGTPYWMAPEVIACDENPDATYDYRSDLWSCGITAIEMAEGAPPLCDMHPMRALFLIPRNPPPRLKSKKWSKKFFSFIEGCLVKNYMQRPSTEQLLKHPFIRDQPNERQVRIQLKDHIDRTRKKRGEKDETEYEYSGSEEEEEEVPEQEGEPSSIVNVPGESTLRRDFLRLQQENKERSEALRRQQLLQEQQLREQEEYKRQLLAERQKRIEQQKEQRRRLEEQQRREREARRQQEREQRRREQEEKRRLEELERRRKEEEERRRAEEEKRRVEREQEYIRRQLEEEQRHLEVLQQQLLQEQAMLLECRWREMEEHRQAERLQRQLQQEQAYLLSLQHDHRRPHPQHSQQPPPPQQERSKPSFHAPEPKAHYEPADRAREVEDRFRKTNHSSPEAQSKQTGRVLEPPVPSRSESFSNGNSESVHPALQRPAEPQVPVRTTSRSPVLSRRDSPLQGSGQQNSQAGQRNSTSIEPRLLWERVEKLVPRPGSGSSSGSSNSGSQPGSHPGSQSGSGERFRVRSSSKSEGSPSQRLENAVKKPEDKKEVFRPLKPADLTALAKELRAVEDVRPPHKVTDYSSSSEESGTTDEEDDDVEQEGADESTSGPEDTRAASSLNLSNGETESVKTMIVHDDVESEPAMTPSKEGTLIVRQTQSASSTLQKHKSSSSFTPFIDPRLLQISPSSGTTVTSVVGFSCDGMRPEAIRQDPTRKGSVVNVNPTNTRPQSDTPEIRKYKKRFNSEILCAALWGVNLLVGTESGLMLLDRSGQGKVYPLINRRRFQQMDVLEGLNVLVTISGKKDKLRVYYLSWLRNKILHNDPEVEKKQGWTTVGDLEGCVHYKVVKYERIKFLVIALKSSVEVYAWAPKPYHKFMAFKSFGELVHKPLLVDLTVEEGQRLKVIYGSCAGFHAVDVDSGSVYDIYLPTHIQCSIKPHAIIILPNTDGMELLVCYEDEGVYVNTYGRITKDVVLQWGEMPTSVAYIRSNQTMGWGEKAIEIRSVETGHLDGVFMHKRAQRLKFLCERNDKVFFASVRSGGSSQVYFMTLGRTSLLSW
T1 sequence (Q15208 whole entry): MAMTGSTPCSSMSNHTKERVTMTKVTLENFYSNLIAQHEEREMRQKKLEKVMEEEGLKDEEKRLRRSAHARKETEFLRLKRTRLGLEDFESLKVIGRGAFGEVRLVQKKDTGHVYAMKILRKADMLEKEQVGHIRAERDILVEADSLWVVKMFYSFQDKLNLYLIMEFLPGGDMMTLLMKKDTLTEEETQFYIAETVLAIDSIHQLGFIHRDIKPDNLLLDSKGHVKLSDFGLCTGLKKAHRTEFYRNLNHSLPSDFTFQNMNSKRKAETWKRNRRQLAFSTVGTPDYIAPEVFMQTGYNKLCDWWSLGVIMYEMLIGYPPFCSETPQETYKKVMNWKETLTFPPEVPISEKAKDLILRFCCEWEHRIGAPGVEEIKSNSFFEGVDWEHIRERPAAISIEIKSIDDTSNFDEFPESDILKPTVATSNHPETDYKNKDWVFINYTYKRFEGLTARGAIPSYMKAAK
T7 sequence (Q02750 whole entry): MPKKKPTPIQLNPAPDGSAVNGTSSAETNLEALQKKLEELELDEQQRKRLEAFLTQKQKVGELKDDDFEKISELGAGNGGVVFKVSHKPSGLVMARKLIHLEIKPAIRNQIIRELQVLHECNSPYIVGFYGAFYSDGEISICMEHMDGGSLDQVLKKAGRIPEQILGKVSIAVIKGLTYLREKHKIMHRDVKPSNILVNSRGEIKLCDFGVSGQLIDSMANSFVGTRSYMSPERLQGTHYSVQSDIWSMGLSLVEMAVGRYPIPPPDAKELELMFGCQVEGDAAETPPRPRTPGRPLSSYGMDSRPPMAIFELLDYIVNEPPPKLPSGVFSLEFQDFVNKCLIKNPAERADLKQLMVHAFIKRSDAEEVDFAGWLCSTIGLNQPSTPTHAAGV

CC(C)n1c(=O)ccc2cnc(Nc3ccc(OCCN)cc3)nc21 [V16742] was tested, and the “rAVERAGE (CTRL/1 INC)” value [1, 3] was 0.01, the Ki ([1]; immobilized VI16742) was 78.3 µM and the “rAVERAGE (2 INC/1 INC)” value ([1]; second vs first incubation) was 0.60. The “r (3 MG/1 MG LYSATE)” value (CDK4 (IPI00007811); 3 mg vs 1 mg lysate) was 1.77, the “r (5 h/2.5 h INC. TIME)” value (CDK4 (IPI00007811); 5 h vs 2.5 h incubation time) was 1.03 and the “rAVERAGE (CTRL/1 INC)” value (CDK4 (IPI00007811); [3]) was 0.07. For the same molecule, the Ki (CDK4 (IPI00007811); immobilized VI16742) was 511 µM, the “rAVERAGE (2 INC/1 INC)” value (CDK4 (IPI00007811); second vs first incubation) was 0.91 and the “rAVERAGE (CTRL/1 INC)” value (MET (IPI00294528); [3]) was 0.08. The Ki (MET (IPI00294528); immobilized VI16742) was 94.8 µM, the “rAVERAGE (2 INC/1 INC)” value (MET (IPI00294528); second vs first incubation) was 0.65 and the “r (3 MG/1 MG LYSATE)” value (MAP2K6 (IPI00003814); 3 mg vs 1 mg lysate) was 2.41. The “r (5 h/2.5 h INC. TIME)” value (MAP2K6 (IPI00003814); 5 h vs 2.5 h incubation time) was 1.36, the “rAVERAGE (CTRL/1 INC)” value (MAP2K6 (IPI00003814); [3]) was 0.05 and the Ki (MAP2K6 (IPI00003814); immobilized VI16742) was 178 µM. The “rAVERAGE (2 INC/1 INC)” value (MAP2K6 (IPI00003814); second vs first incubation) was 0.77, the “r (3 MG/1 MG LYSATE)” value (ACLY (IPI00021290); 3 mg vs 1 mg lysate) was 3.59 and the “r (5 h/2.5 h INC. TIME)” value (ACLY (IPI00021290); 5 h vs 2.5 h incubation time) was 1.98. The “rAVERAGE (CTRL/1 INC)” value (ACLY (IPI00021290); [3]) was 0.06, the Ki (ACLY (IPI00021290); immobilized VI16742) was 162 µM and the “rAVERAGE (2 INC/1 INC)” value (ACLY (IPI00021290); second vs first incubation) was 0.76. The “r (3 MG/1 MG LYSATE)” value (XTP3TPA (IPI00012197); 3 mg vs 1 mg lysate) was 3.39, the “r (5 h/2.5 h INC. TIME)” value (XTP3TPA (IPI00012197); 5 h vs 2.5 h incubation time) was 1.04 and the “rAVERAGE (CTRL/1 INC)” value (XTP3TPA (IPI00012197); [3]) was 0.08. For the same molecule, the Ki (XTP3TPA (IPI00012197); immobilized VI16742) was 159 µM, the “rAVERAGE (2 INC/1 INC)” value (XTP3TPA (IPI00012197); second vs first incubation) was 0.75 and the “r (5 h/2.5 h INC. TIME)” value (MAP2K1 (IPI00219604); 5 h vs 2.5 h incubation time) was 1.68. The “rAVERAGE (CTRL/1 INC)” value (MAP2K1 (IPI00219604); [3]) was 0.07, the Ki (MAP2K1 (IPI00219604); immobilized VI16742) was 180 µM and the “rAVERAGE (2 INC/1 INC)” value (MAP2K1 (IPI00219604); second vs first incubation) was 0.78. For the same molecule, the “rAVERAGE (CTRL/1 INC)” value [2, 3] was 0.05, the Ki ([2]; immobilized VI16742) was 75.7 µM and the “rAVERAGE (2 INC/1 INC)” value ([2]; second vs first incubation) was 0.59.
